The text below walks through data of PubChem BioAssay (NCI).

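Each compound was tested at five concentrations against cells in 96-well plates for 48 hours. GI50: concentration for 50% inhibition of growth. TGI: total growth inhibition.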

Among the test systems are CCRF-CEM leukemia; HCC-2998 colon; K-562 leukemia; LOX IMVI melanoma; RPMI-8226 leukemia; SNB-75 CNS; SW-620 colon; U251 CNS; UO-31 renal; BT-549 breast.
Common to all, as to assay: NCI tumour cell line growth inhibition, 48 h

For the molecule `COc1ccc(C(=O)Cc2ccc(Br)cc2)cc1OC`, the TGI in the assay with CCRF-CEM leukemia was greater than 100 µM; in the assay with HCC-2998 colon it was greater than 100 µM; in the assay on K-562 leukemia it was greater than 100 µM; with LOX IMVI melanoma, greater than 100 µM; in the assay on RPMI-8226 leukemia, greater than 100 µM; with SNB-75 CNS, 54.5 µM. Further, the TGI in the assay with SW-620 colon, in the assay with U251 CNS and with UO-31 renal was greater than 100 µM in each case.
As for `COc1ccc(C(=O)/C=C/c2c(Cl)c3c(c(OC)c2Cl)OCC(=O)N3)cc1`, the GI50 in the assay on CCRF-CEM leukemia is 1.87 µM; in the assay on K-562 leukemia, 1.85 µM; with LOX IMVI melanoma, 1.36 µM; with RPMI-8226 leukemia it was 1.07 µM; with SNB-75 CNS, 2.23 µM; in the assay with SW-620 colon it was 1.81 µM. The TGI in the assay with CCRF-CEM leukemia is 8.44 µM; in the assay with K-562 leukemia it was 7.73 µM; in the assay with LOX IMVI melanoma it was 2.88 µM; with RPMI-8226 leukemia, 4.07 µM; in the assay with SNB-75 CNS, 9.71 µM; in the assay with SW-620 colon, 3.66 µM.
For the molecule `NNC(=O)Cn1c2ccc(Br)cc2c2nc3ccccc3nc21`, the TGI in the assay with BT-549 breast, in the assay on K-562 leukemia, in the assay on RPMI-8226 leukemia, with SNB-75 CNS, in the assay on SW-620 colon and with U251 CNS was greater than 100 µM each time. This molecule also returned a TGI with UO-31 renal greater than 100 µM.
Consider `C[C@@H]1CC[C@H]2C(C(O)CCCCC(O)C3=C(C(F)(F)F)O[C@@H]4O[C@@]5(C)CC[C@H]6[C@H](C)CC[C@@H]3[C@@]46OO5)=C(C(F)(F)F)O[C@@H]3O[C@@]4(C)CC[C@@H]1[C@]32OO4` (some centres undefined), for which the GI50 was 80.5 µM in the assay on BT-549 breast; 14.3 µM in the assay on CCRF-CEM leukemia; 16.2 µM with K-562 leukemia; 3.12 µM with LOX IMVI melanoma; 5.06 µM in the assay on RPMI-8226 leukemia; 42.4 µM with SNB-75 CNS. The GI50 with SW-620 colon is 5.64 µM; in the assay with U251 CNS, 19.8 µM; with UO-31 renal, 10.2 µM. The TGI with BT-549 breast was greater than 100 µM; in the assay on CCRF-CEM leukemia it was greater than 100 µM; in the assay on K-562 leukemia it was greater than 100 µM; with LOX IMVI melanoma, 11.8 µM; in the assay with RPMI-8226 leukemia it was greater than 100 µM; with SNB-75 CNS, greater than 100 µM. Also, the TGI in the assay on SW-620 colon, in the assay on U251 CNS and in the assay on UO-31 renal was greater than 100 µM in each case.
Take `COc1cc2cc[n+]3c(C)c4cc(OC)c(OC)cc4c([O-])c3c2cc1OC`: the TGI with CCRF-CEM leukemia, with HCC-2998 colon, with K-562 leukemia, in the assay with RPMI-8226 leukemia, in the assay with SNB-75 CNS and with SW-620 colon was greater than 100 µM throughout. Besides, the TGI in the assay on U251 CNS and with UO-31 renal was greater than 100 µM in each case.
On to `COc1ccc(-n2c(=O)n(C)c(=O)n2-c2ccc(OC)cc2)cc1`, for which the TGI in the assay on BT-549 breast, in the assay on CCRF-CEM leukemia, in the assay on K-562 leukemia, with LOX IMVI melanoma, in the assay with RPMI-8226 leukemia and with SNB-75 CNS was greater than 100 µM throughout. Besides, the TGI in the assay on SW-620 colon, in the assay with U251 CNS and in the assay on UO-31 renal was greater than 100 µM throughout.
For `Oc1c([Si](c2ccccc2)(c2ccccc2)c2ccccc2)cc2ccccc2c1-c1c(O)c([Si](c2ccccc2)(c2ccccc2)c2ccccc2)cc2ccccc12`, the TGI in the assay on CCRF-CEM leukemia, with HCC-2998 colon, in the assay with K-562 leukemia, in the assay with LOX IMVI melanoma, in the assay on RPMI-8226 leukemia and in the assay with SNB-75 CNS was greater than 100 µM in each case. The TGI in the assay with SW-620 colon, in the assay on U251 CNS and with UO-31 renal was greater than 100 µM each time.
As to `O=C1c2cc3c(cc2CC12Cc1ccc4c(c1C2=O)CCCC4)CCCC3` (centres undefined), the TGI in the assay with CCRF-CEM leukemia, with HCC-2998 colon, in the assay on K-562 leukemia, with LOX IMVI melanoma, in the assay on RPMI-8226 leukemia and in the assay with SNB-75 CNS was greater than 100 µM throughout. For the same molecule, the TGI with SW-620 colon was greater than 100 µM; in the assay on U251 CNS, 60.5 µM; in the assay on UO-31 renal it was greater than 100 µM.
`CCOC(=O)c1cc2c3c(c(C(C)=O)c(O)c2[nH]1)N(CC(C)CC)CC3` (centres undefined): the TGI in the assay with BT-549 breast, in the assay on CCRF-CEM leukemia, with K-562 leukemia, in the assay on LOX IMVI melanoma, with RPMI-8226 leukemia and in the assay with SNB-75 CNS was greater than 100 µM throughout. The TGI with SW-620 colon, in the assay on U251 CNS and in the assay with UO-31 renal was greater than 100 µM each time.
As for `Nc1ccccc1CC(O)C(=O)O` (centres undefined), the TGI with CCRF-CEM leukemia, in the assay on HCC-2998 colon, with K-562 leukemia, in the assay on LOX IMVI melanoma, in the assay on RPMI-8226 leukemia and in the assay on SNB-75 CNS was greater than 100 µM in each case. Also, the TGI in the assay with SW-620 colon and in the assay on U251 CNS was greater than 100 µM each time.
Take `O=c1c2cc(I)ccc2nc(-c2cccs2)n1-c1ccc(O)cc1`: the TGI in the assay on BT-549 breast was 27.9 µM; with HCC-2998 colon, 30.6 µM; in the assay with K-562 leukemia, greater than 100 µM; with LOX IMVI melanoma, 28.5 µM; in the assay on RPMI-8226 leukemia, 18.3 µM; in the assay on SW-620 colon it was 69.6 µM. In addition, the TGI in the assay on U251 CNS is 48.5 µM; in the assay on UO-31 renal, 25.4 µM.
Turning to `O=C(O)c1ccn(-c2cccc(-n3ccc(C(=O)O)n3)n2)n1`, the TGI in the assay with BT-549 breast, with CCRF-CEM leukemia, with K-562 leukemia, with LOX IMVI melanoma, in the assay with RPMI-8226 leukemia and in the assay on SNB-75 CNS was greater than 100 µM in each case. The TGI in the assay on SW-620 colon, in the assay with U251 CNS and in the assay with UO-31 renal was greater than 100 µM throughout.
Turning to `CCOc1cc(C2CC(c3ccc(NS(=O)(=O)c4cc([N+](=O)[O-])ccc4C)cc3)=NN2c2ccc([N+](=O)[O-])cc2[N+](=O)[O-])ccc1O` (centres undefined), the TGI with BT-549 breast is 38.4 µM; in the assay on CCRF-CEM leukemia it was greater than 100 µM; with K-562 leukemia, greater than 100 µM; in the assay on LOX IMVI melanoma it was 44.1 µM; in the assay on RPMI-8226 leukemia it was greater than 100 µM; in the assay on SNB-75 CNS, 35.3 µM. Further, the TGI in the assay with SW-620 colon is greater than 100 µM; in the assay on U251 CNS it was 29.2 µM; in the assay on UO-31 renal, 39.8 µM.
